The values that follow come from patent US20240239799A1, “(S)-1-(5-((PYRIDIN-3-YL)THIO)PYRAZIN-2-YL)-4'H,6'H-SPIRO[PIPERIDINE-4,5'-PYRROLO [1,2-B]PYRAZOL]-4'-AMINE DERIVATIVES AND SIMILAR COMPOUNDS AS SHP2 INHIBITORS FOR THE TREATMENT OF E.G. CANCER” (C.N.C.C.S. S.C.A.R.L. COLLEZIONE NAZIONALE DEI COMPOSTI …, priority 2021, published 2024).

Each structure is given as a SMILES string. Bounds are passed on as bounds.

By koff is commonly meant a measure of how fast the partners let go of each other. A lower koff goes with slow dissociation. Usually IC50 stands for the point on the concentration scale where inhibition reaches its midpoint.

Assay [1] has as its target T1, SHP2 (Avi-G4SG4S-PTPN11(1-525)) (Homo sapiens, UniProt Q06124).
T1 construct: (Avi-G4SG4S-PTPN11(1-525)); purchased Viva Biotech Ltd
T1 sequence (Q06124 1-525): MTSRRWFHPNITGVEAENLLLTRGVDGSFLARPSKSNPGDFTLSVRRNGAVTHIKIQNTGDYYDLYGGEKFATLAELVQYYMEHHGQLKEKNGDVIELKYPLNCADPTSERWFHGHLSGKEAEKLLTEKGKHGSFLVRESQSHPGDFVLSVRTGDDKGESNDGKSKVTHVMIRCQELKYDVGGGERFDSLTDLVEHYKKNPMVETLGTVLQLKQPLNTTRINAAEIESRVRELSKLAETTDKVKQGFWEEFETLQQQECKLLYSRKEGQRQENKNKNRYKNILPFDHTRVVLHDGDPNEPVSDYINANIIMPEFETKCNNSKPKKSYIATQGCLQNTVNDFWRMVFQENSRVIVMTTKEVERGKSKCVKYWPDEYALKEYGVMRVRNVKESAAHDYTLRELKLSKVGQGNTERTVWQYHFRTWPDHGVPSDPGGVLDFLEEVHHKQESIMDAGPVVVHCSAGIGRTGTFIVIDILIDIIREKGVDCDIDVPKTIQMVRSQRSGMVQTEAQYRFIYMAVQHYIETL
The assay is described as follows: Binding kinetic assay by surface plasmon resonance (SPR). The conditions noted are these: Biacore T200, single cycle kinetic, 1:1 Langmuir binding model; for koff: triplicate. The procedure: A binding assay for measuring SHP2 inhibitors binding kinetic was developed using a Biacore T200 Instrument (Cytiva, Sweden). […] Data analysis was performed by Biacore T200 Evaluation software (Cytiva), and kinetic parameters were evaluated by a global fitting according to a 1:1 Langmuir binding model. Each molecule was tested in triplicate on separate flow channels.
In general terms: Surface plasmon resonance follows binding to a sensor surface in real time, without labels.

Assay [2] deals with T2, SHP-2 enzyme (Met1-Leu525) (Homo sapiens, UniProt Q06124).
T2 construct: synthetized by Origene, Met1-Leu525, cat #TP750155; purchased Origene TP750155
T2 sequence (Q06124 1-525): T1 sequence (Q06124 1-525)
The assay is described as follows: SHP2 inhibition enzymatic assay (DiFMUP substrate, IRS1 peptide activation). Format: biochemical. The conditions noted are these: 0.5 nM SHP-2, 500 nM IRS1 peptide, 75 μM DiFMUP; read-out: SHP2wt - IC50.

Assay [3] concerns phospho-ERK1/2 (Thr202/Tyr204) in KYSE-520 cells. The assay is described as follows: Phospho-ERK cellular assay (TR-FRET). Format: cell-based. The conditions noted are these: Homo sapiens, KYSE-520, 2 h, KYSE-520 cells, 2 h at 37° C.; read-out: pERK IC50. An outline of the steps: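 KYSE-520 cells plated overnight, then exposed to compound for 2 h at 37° C and lysed. Phospho-ERK1/2 (Thr202/Tyr204) detected by TR-FRET with Eu-cryptate and D2 antibodies after overnight incubation at rt. IC50 from four-parameter fit, normalised to DMSO (0%) and no-cell (100%) controls.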
For orientation: TR-FRET usually uses a lanthanide donor and a delayed reading to cut background.

Turning to `Cn1cc2c(Cl)c(Sc3cnc(N4CCC5(CC4)Cn4nccc4[C@H]5N)n4ccnc34)ccc2n1` [Example 16, (S)-1-(8-((4-chloro-2-methyl-2H-indazol-5-yl)thio)imidazo[1,2-c]pyrimidin-5-yl)-4′H,6′H-spiro[piperidine-4,5′-pyrrolo[1,2-b]pyrazol]-4′-amine], the “Residence time 1/koff SPR” value in assay [1] is on record as 16026 s. In assay [1], this compound displayed a koff of 6.24e-05 s⁻¹. In addition, the IC50 is at most 50 nM in assay [2] and under 100 nM in assay [3].
The corresponding values for `N[C@@H]1c2c(F)cnn2CC12CCN(c1cnc(Sc3ccn4ccnc4c3Cl)cn1)CC2` [Example 49, (S)-1-(5-((8-chloroimidazo[1,2-a]pyridin-7-yl)thio)pyrazin-2-yl)-3′-fluoro-4′H,6′H-spiro[piperidine-4,5′-pyrrolo[1,2-b]pyrazol]-4′-amine] are 14493 s, 6.9e-05 s⁻¹, at most 50 nM and under 100 nM.
The corresponding values for `Nc1nccc(Sc2cnc(N3CCC4(CC3)Cn3nc5c(c3[C@H]4N)CCC5)c3cncn23)c1Cl` [Example 21, (S)-1′-(5-((2-amino-3-chloropyridin-4-yl)thio)imidazo[1,5-a]pyrazin-8-yl)-1,2,3,8-tetrahydro-6H-spiro[cyclopenta[d]pyrrolo[1,2-b]pyrazole-7,4′-piperidin]-8-amine] are 12903 s, 7.75e-05 s⁻¹, at most 50 nM and under 100 nM.
The corresponding values for `Cc1nn2c(c1Cl)[C@@H](N)C1(CCN(c3cnc(Sc4ccnc(N)c4Cl)cn3)CC1)C2` [Example 14, (S)-1-(5-((2-amino-3-chloropyridin-4-yl)thio)pyrazin-2-yl)-3′-chloro-2′-methyl-4′H,6′H-spiro[piperidine-4,5′-pyrrolo[1,2-b]pyrazol]-4′-amine] are 14535 s, 6.88e-05 s⁻¹, at most 50 nM and under 100 nM.
Regarding `Nc1nccc(Sc2cnc(N3CCC4(CC3)Cn3nccc3[C@H]4N)cn2)c1Cl` [Example 6, (S)-1-(5-((2-amino-3-chloropyridin-4-yl)thio)pyrazin-2-yl)-4′H,6′H-spiro[piperidine-4,5′-pyrrolo[1,2-b]pyrazol]-4′-amine], in assay [1], the “Residence time 1/koff SPR” value worked out at 2740 s and the koff stood at 0.000365 s⁻¹. Moreover, the IC50 in assay [2] is at most 50 nM. The IC50 in assay [3] was under 100 nM.
The corresponding values for `Nc1nccc(Sc2cnc(N3CCC4(CC3)Cn3ncc(Br)c3[C@H]4N)cn2)c1Cl` [Example 8, (S)-1-(5-((2-amino-3-chloropyridin-4-yl)thio)pyrazin-2-yl)-3′-bromo-4′H,6′H-spiro[piperidine-4,5′-pyrrolo[1,2-b]pyrazol]-4′-amine] are 8621 s, 0.000116 s⁻¹, at most 50 nM and under 100 nM.
With `Nc1nc(N2CCC3(CC2)Cn2ncc(Cl)c2[C@H]3N)cnc1Sc1ccnc(N)c1Cl` [Example 5, (S)-1-(6-amino-5-((2-amino-3-chloropyridin-4-yl)thio)pyrazin-2-yl)-3′-chloro-4′H,6′H-spiro[piperidine-4,5′-pyrrolo[1,2-b]pyrazol]-4′-amine], in assay [1], the “Residence time 1/koff SPR” value amounted to 17007 s and the koff was found to be 5.88e-05 s⁻¹. Besides, the IC50 in assay [2] is at most 50 nM. Moreover, the IC50 in assay [3] is under 100 nM.
The corresponding values for `Nc1nccc(Sc2cnc(N3CCC4(CC3)Cn3ncc(Cl)c3[C@H]4N)n3ccnc23)c1Cl` [Example 18, (S)-1-(8-((2-amino-3-chloropyridin-4-yl)thio)imidazo[1,2-c]pyrimidin-5-yl)-3′-chloro-4′H,6′H-spiro[piperidine-4,5′-pyrrolo[1,2-b]pyrazol]-4′-amine] are 37175 s, 2.69e-05 s⁻¹, at most 50 nM and under 100 nM.
Turning to `Cc1cc2n(n1)CC1(CCN(c3cnc(Sc4ccnc(N)c4Cl)cn3)CC1)[C@@H]2N` [Example 11, (S)-1-(5-((2-amino-3-chloropyridin-4-yl)thio)pyrazin-2-yl)-2′-methyl-4′H,6′H-spiro[piperidine-4,5′-pyrrolo[1,2-b]pyrazol]-4′-amine], the “Residence time 1/koff SPR” value in assay [1] turned out to be 29412 s. The koff in assay [1] came to 3.4e-05 s⁻¹. Also, the IC50 is at most 50 nM in assay [2] and under 100 nM in assay [3].
The corresponding values for `N[C@@H]1c2ccnn2CC12CCN(c1cnc(Sc3ccn4ccnc4c3Cl)cn1)CC2` [Example 31, (S)-1-(5-((8-chloroimidazo[1,2-a]pyridin-7-yl)thio)pyrazin-2-yl)-4′H,6′H-spiro[piperidine-4,5′-pyrrolo[1,2-b]pyrazol]-4′-amine] are 12674 s, 7.89e-05 s⁻¹, at most 50 nM and under 100 nM.
The corresponding values for `Nc1nccc(Sc2cnc(N3CCC4(CC3)Cn3nc5c(c3[C@H]4N)COC5)cn2)c1Cl` [Example 27, (S)-1′-(5-((2-amino-3-chloropyridin-4-yl)thio)pyrazin-2-yl)-1,8-dihydro-3H,6H-spiro[furo[3,4-d]pyrrolo[1,2-b]pyrazole-7,4′-piperidin]-8-amine] are 30303 s, 3.3e-05 s⁻¹, at most 50 nM and under 100 nM.
The corresponding values for `N[C@@H]1c2ccnn2CC12CCN(c1cnc(Sc3ccnc4c3OC[C@@H]3CCCN43)cn1)CC2` [Example 13, (S)-1-(5-(((S)-6a,7,8,9-tetrahydro-6H-pyrido[3,2-b]pyrrolo[1,2-d][1,4]oxazin-4-yl)thio)pyrazin-2-yl)-4′H,6′H-spiro[piperidine-4,5′-pyrrolo[1,2-b]pyrazol]-4′-amine] are 3333 s, 0.0003 s⁻¹, at most 50 nM and under 100 nM.
